The assay relates to grass silage. Kind of assay: Aerobic stability of grass silage (PVC silos, method of Honig). The arrangement: species or system ryegrass. The protocol:
Second cut ryegrass was harvested at PLNC. The grass was determined to have an approximate dry matter of 35%.
Inoculation: Individual strains were supplied as fresh grown overnight culture. Cultures were adjusted to a standard concentration of 5.0×10^7 CFU/mL and applied using a syringe at a rate of 2.2 mL/kg of forage. The application rate for all strains was 1.1×10^5 CFU/g forage. Propionic acid (88%) was applied at a rate of 4.4 mL/kg fresh forage.
PVC Silos: PVC silos were filled at a packing density of 0.288 kg DM/silo (100 kg DM/m^3); approximately 0.82-0.95 kg/silo. Silos were air infused for 24 hours on days 28 and 42, and opened after 50-60 days of ensiling.
Aerobic Stability: The method of Honig (Proc. Of the Eurobac. Conf., P. Lingvall and S. Lindgren (ed.) (12-16 Aug. 1986) Swed. Univ. of Agric. Sci. Grass and Forage Report No. 3-1990. Pp. 76-81. Uppsala, Sweden.) was used for measuring aerobic stability (see Table 2). ROT is defined as the time, in hours, for the silage to heat 1.7° C. after exposure to air. Cumm_DD is the integral value of the area between the time ROT is attained and the end of the experiment. Aerobic dry matter loss (% dry matter) was determined relating the increase in temperature and the time to energy losses occurring in the silage.

The structures appear in SMILES notation.

As for `CCC(=O)O` [Propionic Acid, Propionic acid], the “Aerobic deterioration versus control grass silages” value is “significantly less aerobic deterioration than the control”.

(Values after patent US20090028991A1, “Lactobacillus buchneri strain LN1284 and its use to improve aerobic stability of silage” (Pioneer Hi-Bred International, Inc., priority 2006, published 2009).)
